Measurements: ChEMBL document CHEMBL1201862, “PubChem BioAssay data set” (2004)
Active and inactive are the calls of the source.

Columns and labels:
Genome polyprotein = Genome polyprotein (dengue virus type 2, UniProt P29990); assay: Dengue-2 NS5 methyltransferase inhibitors, primary screen, biochemical, confirmation dose response (AID 588689); format: functional
[1] = target: T1, Polyadenylate-binding protein 1 (Homo sapiens, UniProt P11940); assay: PABP1 MLLE–PAM2 binding inhibitor potency, dose response, biochemical, fluorescence polarization, FITC-PAM2 peptide (AID 602259); format: functional; details: read-out: IC50_Mean
T1 sequence (P11940 whole entry): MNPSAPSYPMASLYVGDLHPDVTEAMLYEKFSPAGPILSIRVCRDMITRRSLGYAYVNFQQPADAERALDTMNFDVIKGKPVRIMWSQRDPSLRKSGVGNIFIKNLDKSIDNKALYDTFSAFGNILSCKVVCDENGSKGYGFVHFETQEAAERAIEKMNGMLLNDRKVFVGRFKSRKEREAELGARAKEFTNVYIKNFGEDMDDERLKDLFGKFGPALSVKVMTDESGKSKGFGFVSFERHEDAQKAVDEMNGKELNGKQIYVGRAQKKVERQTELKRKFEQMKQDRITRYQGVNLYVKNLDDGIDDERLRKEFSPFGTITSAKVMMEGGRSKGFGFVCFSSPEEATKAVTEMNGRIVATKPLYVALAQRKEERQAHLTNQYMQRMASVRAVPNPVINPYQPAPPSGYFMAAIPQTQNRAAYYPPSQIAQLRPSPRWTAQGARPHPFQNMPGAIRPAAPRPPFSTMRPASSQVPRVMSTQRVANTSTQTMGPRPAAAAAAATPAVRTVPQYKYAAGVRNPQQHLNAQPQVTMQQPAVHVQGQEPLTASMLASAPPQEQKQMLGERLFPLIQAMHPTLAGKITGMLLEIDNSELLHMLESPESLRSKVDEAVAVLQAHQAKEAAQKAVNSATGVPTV

[2] = target: T1, Polyadenylate-binding protein 1; assay: PABP1 MLLE–PAM2 interaction inhibitors, dose response, miRNA deadenylation inhibitor project, biochemical, fluorescence polarization, Cy5-PAM2 peptide, secondary (AID 602260); format: functional; details: read-out: IC50_Mean
Cytochrome P450 2C19 = Cytochrome P450 2C19 (Homo sapiens, UniProt P33261); assay: Cytochrome panel assay with activity outcomes. Panel member name: p450-cyp2c19 Compounds with AC50 equal or less than 10 uM are considered active; format: functional
Cytochrome P450 2C19, sequence (P33261 whole entry): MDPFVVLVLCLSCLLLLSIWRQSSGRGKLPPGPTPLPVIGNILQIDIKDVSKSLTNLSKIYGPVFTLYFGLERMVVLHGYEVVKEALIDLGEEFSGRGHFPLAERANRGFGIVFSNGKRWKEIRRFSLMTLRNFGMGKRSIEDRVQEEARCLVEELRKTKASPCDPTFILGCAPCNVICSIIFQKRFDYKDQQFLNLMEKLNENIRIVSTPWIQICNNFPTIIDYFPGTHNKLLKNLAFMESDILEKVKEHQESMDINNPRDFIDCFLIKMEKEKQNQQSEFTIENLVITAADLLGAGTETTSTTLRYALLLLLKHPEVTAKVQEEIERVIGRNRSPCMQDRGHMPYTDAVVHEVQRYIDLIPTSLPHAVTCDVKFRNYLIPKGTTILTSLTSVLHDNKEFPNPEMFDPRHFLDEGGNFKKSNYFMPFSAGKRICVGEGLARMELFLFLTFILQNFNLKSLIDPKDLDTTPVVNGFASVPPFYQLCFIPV

[3] = target: FAD-linked sulfhydryl oxidase ALR (Homo sapiens, UniProt P55789); assay: inhibitors of human ALR sulfhydryl oxidase, dose response, biochemical, H2O2 detection, luminescence, cherry-pick (AID 493248)
FAD-linked sulfhydryl oxidase ALR, sequence (P55789 whole entry): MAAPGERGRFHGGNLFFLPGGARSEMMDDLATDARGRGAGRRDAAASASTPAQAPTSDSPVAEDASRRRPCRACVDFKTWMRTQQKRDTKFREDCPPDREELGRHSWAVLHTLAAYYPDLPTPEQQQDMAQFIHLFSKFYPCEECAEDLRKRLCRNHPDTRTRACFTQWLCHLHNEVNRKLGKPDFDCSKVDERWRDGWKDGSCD

[4] = Luminescence Cell-Based Dose Retest to Confirm Inhibitors of Cancer Stem Cells. [Related pubchem assays (depositor defined):AID2717, AID2721]; format: functional; details: Homo sapiens
[5] = inhibitors of intracellular T. cruzi replication, confirmation, NIH3T3 host cells, beta-gal luminescence (AID 2044); format: functional, cell-based;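 further: intracellular parasites grown in NIH/3T3 mouse fibroblasts as host cells; luminescent beta-galactosidase reporter signal from transgenic T. cruzi replicating inside host cells; inhibitors lower the luminescence signal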
[6] = cytotoxicity toward NIH3T3 fibroblasts, dose response, counter-screen, cell-based, ATP luminescence, mouse fibroblasts (AID 2010); format: functional;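 further: cells exposed to compound for about 90 hours before reading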
Cytochrome P450 1A2 = target: T2, Cytochrome P450 1A2 (Homo sapiens, UniProt P05177);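 further: PubChem cytochrome P450 panel assay, CYP1A2 panel member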
T2 sequence (P05177 whole entry): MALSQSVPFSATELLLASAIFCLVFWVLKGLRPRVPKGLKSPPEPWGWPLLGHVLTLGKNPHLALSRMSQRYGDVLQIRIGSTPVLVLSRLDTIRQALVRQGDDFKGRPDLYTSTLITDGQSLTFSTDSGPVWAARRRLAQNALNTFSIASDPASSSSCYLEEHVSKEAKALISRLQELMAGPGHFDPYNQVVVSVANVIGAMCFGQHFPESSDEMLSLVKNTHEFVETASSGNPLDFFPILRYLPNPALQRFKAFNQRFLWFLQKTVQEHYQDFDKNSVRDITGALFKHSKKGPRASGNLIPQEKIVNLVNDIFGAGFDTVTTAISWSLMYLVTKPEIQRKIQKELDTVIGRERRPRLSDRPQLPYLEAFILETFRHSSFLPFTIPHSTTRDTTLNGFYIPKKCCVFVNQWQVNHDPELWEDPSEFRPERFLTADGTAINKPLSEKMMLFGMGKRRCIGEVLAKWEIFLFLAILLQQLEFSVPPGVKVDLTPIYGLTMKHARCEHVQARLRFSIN

[7] = target: T3, Rac GTPase-activating protein 1 (Homo sapiens, UniProt Q9H0H5); assay: MgcRacGAP GTPase-activating activity inhibitors, confirmation, biochemical, ADP Hunter fluorescence, primary and confirmatory (AID 624330); format: functional
T3 sequence (Q9H0H5 whole entry): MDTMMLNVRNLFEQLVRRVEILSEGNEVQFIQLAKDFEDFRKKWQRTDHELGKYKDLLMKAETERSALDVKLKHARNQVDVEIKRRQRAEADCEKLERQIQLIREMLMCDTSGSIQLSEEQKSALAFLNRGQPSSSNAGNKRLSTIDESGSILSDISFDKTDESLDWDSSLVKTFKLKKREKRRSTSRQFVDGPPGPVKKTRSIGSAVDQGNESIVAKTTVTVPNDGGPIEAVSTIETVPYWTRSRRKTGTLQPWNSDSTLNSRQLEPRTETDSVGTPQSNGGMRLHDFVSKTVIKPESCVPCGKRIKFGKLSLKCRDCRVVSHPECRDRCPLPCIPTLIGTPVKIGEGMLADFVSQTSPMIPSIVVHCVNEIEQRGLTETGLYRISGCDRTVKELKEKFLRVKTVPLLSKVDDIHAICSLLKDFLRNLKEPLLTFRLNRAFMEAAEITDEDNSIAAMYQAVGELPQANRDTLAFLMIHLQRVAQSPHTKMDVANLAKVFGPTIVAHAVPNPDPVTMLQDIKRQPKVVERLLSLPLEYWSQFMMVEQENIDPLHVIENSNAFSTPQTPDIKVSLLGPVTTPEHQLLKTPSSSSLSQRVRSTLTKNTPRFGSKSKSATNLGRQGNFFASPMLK

[8] = HEp-2 cell cytotoxicity, dose response, cytotoxicity control for RSV inhibitor project, HTS (AID 2410); format: functional; details: human respiratory syncytial virus
Cytochrome P450 2C9 = Cytochrome P450 2C9 (Homo sapiens, UniProt P11712)
Cytochrome P450 2C9, sequence (P11712 whole entry): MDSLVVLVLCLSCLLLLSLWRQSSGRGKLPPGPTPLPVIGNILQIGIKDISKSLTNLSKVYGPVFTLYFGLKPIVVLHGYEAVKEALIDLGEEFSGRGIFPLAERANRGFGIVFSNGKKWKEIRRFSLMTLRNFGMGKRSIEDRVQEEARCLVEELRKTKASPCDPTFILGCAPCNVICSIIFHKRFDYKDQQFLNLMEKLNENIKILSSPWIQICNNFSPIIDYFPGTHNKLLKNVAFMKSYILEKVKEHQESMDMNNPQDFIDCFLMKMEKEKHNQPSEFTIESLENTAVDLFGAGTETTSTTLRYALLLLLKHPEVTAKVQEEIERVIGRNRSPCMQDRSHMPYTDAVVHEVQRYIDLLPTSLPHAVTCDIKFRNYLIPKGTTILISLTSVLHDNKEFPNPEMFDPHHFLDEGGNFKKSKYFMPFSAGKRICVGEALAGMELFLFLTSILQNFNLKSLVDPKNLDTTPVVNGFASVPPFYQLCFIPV

[9] = C. albicans growth with fluconazole, confirmation, fluorescence, retest (AID 2467); format: functional, cell-based
[10] = NIH-3T3 fibroblast cytotoxicity, dose response, cytotoxicity control, cell-based, fluorescence, Alamar Blue, secondary assay (AID 2327); format: functional;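 further: NIH-3T3 mouse fibroblasts cultured with fluconazole at 8 µg/mL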
Cytochrome P450 3A4 = Cytochrome P450 3A4 (Homo sapiens, UniProt P08684);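 further: CYP3A4 tested as one member of a cytochrome P450 panel screen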
Cytochrome P450 3A4, sequence (P08684 whole entry): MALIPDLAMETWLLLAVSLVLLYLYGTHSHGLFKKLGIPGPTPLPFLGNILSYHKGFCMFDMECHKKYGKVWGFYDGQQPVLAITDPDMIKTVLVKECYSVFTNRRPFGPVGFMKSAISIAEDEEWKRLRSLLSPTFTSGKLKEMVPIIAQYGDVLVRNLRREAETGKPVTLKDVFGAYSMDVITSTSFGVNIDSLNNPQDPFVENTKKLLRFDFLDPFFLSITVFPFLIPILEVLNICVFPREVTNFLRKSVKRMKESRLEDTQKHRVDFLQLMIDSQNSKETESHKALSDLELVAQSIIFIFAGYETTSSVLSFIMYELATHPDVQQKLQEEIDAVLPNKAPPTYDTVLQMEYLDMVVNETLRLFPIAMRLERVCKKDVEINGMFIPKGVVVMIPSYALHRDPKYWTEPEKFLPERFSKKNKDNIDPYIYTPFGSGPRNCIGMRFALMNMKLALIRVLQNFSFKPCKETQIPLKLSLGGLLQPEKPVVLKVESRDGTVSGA

Paired box protein Pax-8 = Paired box protein Pax-8 (Homo sapiens, UniProt Q06710); assay: inhibitors of PAX8-driven TPO luciferase reporter, dose response, RMG-I cells, cherry-pick (AID 687027); format: functional, cell-based;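 further: luciferase reporter driven by Pax8 target thyroperoxidase promoter measured by SteadyGlo luminescence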
Paired box protein Pax-8, sequence (Q06710 whole entry): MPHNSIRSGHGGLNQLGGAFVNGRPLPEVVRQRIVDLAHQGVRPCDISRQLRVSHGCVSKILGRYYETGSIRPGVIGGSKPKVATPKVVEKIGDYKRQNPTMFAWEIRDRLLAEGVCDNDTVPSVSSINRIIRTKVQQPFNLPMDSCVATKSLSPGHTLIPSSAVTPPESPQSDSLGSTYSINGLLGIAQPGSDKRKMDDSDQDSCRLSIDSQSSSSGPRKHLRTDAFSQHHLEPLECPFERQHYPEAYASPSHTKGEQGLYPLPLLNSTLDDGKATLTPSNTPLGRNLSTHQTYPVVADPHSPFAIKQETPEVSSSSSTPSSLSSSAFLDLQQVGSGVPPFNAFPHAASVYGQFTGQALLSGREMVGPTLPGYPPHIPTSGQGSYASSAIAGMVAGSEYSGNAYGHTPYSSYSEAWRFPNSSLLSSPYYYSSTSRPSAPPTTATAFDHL

[11] = Shn3 3'UTR reporter inhibitors, dose response, cell-based, Clone20 osteoblasts, firefly luciferase, cherry-picked (AID 624132); format: functional;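 further: firefly luciferase luminescence from reporter carrying the Shn3 3'UTR in osteoblasts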
[12] = HepG2 cell cytotoxicity, dose response, cytotoxicity control for Shn3 inhibitor project, CellTiter-Glo, cherry-picked (AID 624134); format: functional, cell-based
[13] = control 3'UTR Renilla luciferase suppression, dose response, counter-screen for Shn3 inhibitor project, cell-based, Clone20-Shn3RL, cherry-picked (AID 624133); format: functional
[14] = target: T4, Corticotropin-releasing factor receptor 2/Corticotropin-releasing factor-binding protein (Homo sapiens, UniProt P24387+Q13324); assay: activators of CRF receptor 2 with binding protein – uHTS hits, confirmation (AID 602473); format: functional; details: read-out: EC50_Mean
T4 sequence (Q13324 whole entry): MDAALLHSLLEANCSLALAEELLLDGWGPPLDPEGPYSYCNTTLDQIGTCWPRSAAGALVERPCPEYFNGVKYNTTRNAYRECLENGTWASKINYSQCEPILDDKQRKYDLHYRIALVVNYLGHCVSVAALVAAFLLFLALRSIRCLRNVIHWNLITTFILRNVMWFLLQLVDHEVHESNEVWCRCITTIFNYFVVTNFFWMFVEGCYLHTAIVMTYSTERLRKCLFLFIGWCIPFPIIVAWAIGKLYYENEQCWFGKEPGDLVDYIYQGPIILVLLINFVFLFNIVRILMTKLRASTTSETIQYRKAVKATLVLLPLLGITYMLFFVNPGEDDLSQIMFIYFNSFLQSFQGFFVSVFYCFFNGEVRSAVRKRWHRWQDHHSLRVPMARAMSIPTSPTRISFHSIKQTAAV
T4 sequence (P24387 whole entry): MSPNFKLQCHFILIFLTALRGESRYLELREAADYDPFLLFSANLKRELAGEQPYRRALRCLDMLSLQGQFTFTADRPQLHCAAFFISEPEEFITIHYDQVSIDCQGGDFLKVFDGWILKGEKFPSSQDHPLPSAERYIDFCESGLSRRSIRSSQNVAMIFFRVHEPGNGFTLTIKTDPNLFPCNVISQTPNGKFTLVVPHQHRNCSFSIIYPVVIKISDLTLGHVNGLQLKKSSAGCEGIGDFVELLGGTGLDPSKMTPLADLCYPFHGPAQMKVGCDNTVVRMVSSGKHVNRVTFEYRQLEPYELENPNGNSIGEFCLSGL

Genome polyprotein, sequence (P29990 2492-3391 limits assumed): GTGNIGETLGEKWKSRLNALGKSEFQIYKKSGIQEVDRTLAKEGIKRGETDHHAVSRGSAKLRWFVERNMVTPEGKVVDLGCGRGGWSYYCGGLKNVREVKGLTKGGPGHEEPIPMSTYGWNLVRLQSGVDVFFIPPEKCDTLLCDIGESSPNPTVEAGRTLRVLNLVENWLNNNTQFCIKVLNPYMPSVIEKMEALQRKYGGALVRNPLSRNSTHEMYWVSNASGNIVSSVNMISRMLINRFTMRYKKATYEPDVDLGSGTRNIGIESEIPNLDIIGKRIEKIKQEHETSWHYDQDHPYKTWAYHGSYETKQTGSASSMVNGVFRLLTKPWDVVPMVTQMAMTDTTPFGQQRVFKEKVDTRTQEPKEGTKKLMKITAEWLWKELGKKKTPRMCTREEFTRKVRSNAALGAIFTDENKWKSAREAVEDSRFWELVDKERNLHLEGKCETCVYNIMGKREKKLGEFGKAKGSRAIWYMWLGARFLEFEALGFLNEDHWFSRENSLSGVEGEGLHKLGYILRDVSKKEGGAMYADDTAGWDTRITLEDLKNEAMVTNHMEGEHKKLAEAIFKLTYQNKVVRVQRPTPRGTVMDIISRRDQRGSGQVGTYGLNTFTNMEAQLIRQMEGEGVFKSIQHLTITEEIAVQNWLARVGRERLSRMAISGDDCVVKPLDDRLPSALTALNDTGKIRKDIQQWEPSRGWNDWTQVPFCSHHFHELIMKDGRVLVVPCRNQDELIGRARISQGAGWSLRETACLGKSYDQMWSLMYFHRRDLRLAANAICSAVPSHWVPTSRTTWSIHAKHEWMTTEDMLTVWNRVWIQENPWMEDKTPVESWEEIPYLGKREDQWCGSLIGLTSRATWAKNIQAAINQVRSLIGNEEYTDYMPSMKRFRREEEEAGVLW

SMILES: C/C(=N/Nc1ccc(C(=O)O)cc1)c1ccc(O)c(O)c1O
- IC50 (Genome polyprotein): > 100 µM (active)

SMILES: O=C(CSC1=Nc2ccccc2C2=NC(CC(=O)NC3CCCCC3)C(=O)N12)NCc1ccco1 (configuration not stated)
- IC50 [1]: 31.2 µM (inactive)
- IC50 [2]: > 66 µM (inactive)

SMILES: CN(C)Cc1ccc(C(C)(C)C)cc1-c1cc(C(C)(C)C)ccc1CN(C)C
- AC50 (Cytochrome P450 2C19): inconclusive

SMILES: COc1ccccc1CNC(=O)CSC1=NCCS1
- IC50 [1]: > 66 µM (inactive)
- IC50 [2]: > 66 µM (inactive)

SMILES: O=C1NC(=O)C(=Cc2cccc(OCCOc3ccccc3)c2)C(=O)N1
- IC50 (Genome polyprotein): 51.2 µM (active)

SMILES: CCNc1ccc(C(=O)O)cc1N
- AC50 [3]: 1.41 µM (active)

SMILES: COc1ccc(C(C2C(=O)CC(C)(C)CC2=O)C2C(=O)CC(C)(C)CC2=O)cc1COCC(F)(F)F
- IC50 (Genome polyprotein): 27.7 µM (active)

SMILES: O=C(NC1CCCCCC1)C1CCCN1S(=O)(=O)c1cccc2cccnc12 (configuration not stated)
- AC50 [3]: 10.7 µM (active)

SMILES: CCOc1cc(N2CCOCC2)c(OCC)cc1NC(=O)CN1CCC(Cc2ccccc2)CC1
- AC50 [4]: 2.28 µM (active)
- EC50 [5]: 1.36 µM (active)
- EC50 [6]: > 60 µM (not active)

SMILES: Cc1cc(SCNC(=O)c2ccccc2)nc(C(C)C)n1
- IC50 [1]: > 66 µM (inactive)
- IC50 [2]: > 66 µM (inactive)

SMILES: Cc1ccccc1CSc1ccc(-c2ccc3c(c2)OCO3)nn1
- AC50 [4]: 6.68 µM (active)

SMILES: CCOC(=O)c1c(NC(=O)c2ccccc2)sc2c1CCc1ccccc1-2
- IC50 [1]: > 66 µM (inactive)
- IC50 [2]: > 66 µM (inactive)

SMILES: COC(=O)N1CCC2(CCCN(C(c3ccccc3)c3ccccc3)C2)CC1
- AC50 (Cytochrome P450 2C19; read-out: AC50): 25.1 µM (inconclusive)
- AC50 (Cytochrome P450 1A2): 15.8 µM (inconclusive)

SMILES: CCOC(=O)C1CCCN(C(=O)c2ccc(-c3ccc([N+](=O)[O-])cc3)o2)C1 (configuration not stated)
- IC50 [1]: > 66 µM (inactive)
- IC50 [2]: > 66 µM (inactive)

SMILES: COc1ccc(NC2CCCN(C(=O)c3csc(C(C)C)n3)C2)cc1 (configuration not stated)
- IC50 [7]: 139 µM (active)
- AC50 [3]: 0.226 µM (active)

SMILES: CC(=O)NC1=C(C#N)C(c2ccccc2)c2c(ccc3ccccc23)O1 (configuration not stated)
- AC50 [4]: 0.733 µM (active)

SMILES: O=C(NC(=S)Nc1ccc2c(c1)OCCO2)c1cccc(Br)c1
- CC50 [8]: 34.8 µM (active)
- IC50 [1]: > 66 µM (inactive)
- IC50 [2]: > 66 µM (inactive)

SMILES: O=C(O)[C@H]1C[C@]2(C[C@H](C(=O)O)C2)C1 (some centres not stated)
- AC50 (Cytochrome P450 2C19): inconclusive

SMILES: Cc1nc2cc(NC(=O)CSc3nc4c(C)cccc4cc3C#N)ccc2s1
- AC50 (Cytochrome P450 2C19; read-out: AC50): 0.251 µM (inconclusive)
- AC50 (Cytochrome P450 2C9): 3.55 µM (inconclusive)

SMILES: CCOP(=O)(CN(CC)CCNP(=O)(OCC)OCC)OCC
- AC50 (Cytochrome P450 2C19; read-out: AC50): 39.8 µM (inconclusive)
- AC50 (Cytochrome P450 2C9): 0.126 µM (inconclusive)

SMILES: CC(=O)Nc1ccc(OCC(O)CN2CCN(c3cc(Cl)ccc3C)CC2)cc1 (configuration not stated)
- AC50 [4]: 1.77 µM (active)

SMILES: O=C(CN(c1ccc(Cl)cc1)S(=O)(=O)c1ccc(Cl)c([N+](=O)[O-])c1)NCCc1ccc(F)cc1
- AC50 [4]: 2.15 µM (active)

SMILES: Cc1cccc(NC(=O)CSC(N)=O)c1C
- IC50 [1]: > 66 µM (inactive)
- EC50 [9]: > 38 µM (not active)
- EC50 [10]: > 150 µM (inactive)
- IC50 [2]: > 66 µM (inactive)

SMILES: CC(C)c1ccc(NC2CCCN(C(=O)C3=NN(C)C(=O)CC3)C2)cc1 (configuration not stated)
- AC50 [3]: 27.7 µM (active)

SMILES: NC(=O)c1ccc(N2CCCCC2)c(N2C(=O)C3CC=CCC3C2=O)c1 (configuration not stated)
- AC50 (Cytochrome P450 3A4): 25.1 µM (inconclusive)
- AC50 (Cytochrome P450 2C19; read-out: AC50): 39.8 µM (inconclusive)

SMILES: CN(CC(=O)Nc1ccc(Cl)c(Cl)c1)CC(=O)Nc1ccc2c(c1)OCO2
- AC50 [4]: 10.2 µM (active)

SMILES: O=S(=O)(NC(=S)c1ccccc1)c1ccccc1
- IC50 [1]: > 66 µM (inactive)
- IC50 [2]: > 66 µM (inactive)

SMILES: C[C@H]1CN([C@@H](C)CO)C(=O)Cc2cc(NC(=O)CCC(F)(F)F)ccc2O[C@H]1CN(C)Cc1ccc(-c2ccccc2)cc1
- AC50 [4]: 4.88 µM (active)

SMILES: Oc1cccc2cc(Nc3ccccc3)cnc12
- AC50 (Paired box protein Pax-8): 1.37 µM (active)
- AC50 [11]: 0.644 µM (active)
- AC50 [12]: 4 µM (active)
- AC50 [13]: 1.4 µM (active)

SMILES: CC(=O)Oc1oc(-c2ccccc2)nc1/C=N/c1ccccc1
- EC50 [14]: 22.3 µM (active)
- IC50 (Genome polyprotein): 86.3 µM (active)

SMILES: Cc1cc(C)c(S(=O)(=O)N2Cc3ccccc3-n3nncc3C2)c(C)c1
- AC50 [11]: 4.36 µM (active)
- AC50 [12]: 49.7 µM (active)
- AC50 [13]: 5.53 µM (active)

SMILES: COc1cc(/C=N/Nc2ccccc2)ccc1O
- AC50 [3]: 0.887 µM (active)

SMILES: COc1ccc2c(c1)[nH]c1c(=O)n(/N=C/C3C(C)C=C(C)CC3C)c(=O)[nH]c12 (configuration not stated)
- AC50 [4]: > 100 µM (inactive)
